In US11801310B2, “Composition for improving the solubility of poorly soluble substances, use thereof and complex formulation containing thereof” (Industrial Technology Research Institute, priority 2017, dated 2023):
≈ marks a conversion by molar mass, not a printed value.

What was measured:
[1] = at 25° C.; cited from earlier work
[2] = Solubility test for LE, Example 1-3: glutathione as stabilizer; format: physicochemical; conditions: secondary water, aqueous with cosolvent or surfactant or cyclodextrin; final volume 1 mL, pH 5.5, room temperature, 0.22 μm filtered, HPLC
Method: The samples were formulated and analyzed according to the formula shown in the following Table 5 and the methods described below at room temperature.
(§1) […] After that, the mixture was treated by a rotary evaporator to completely remove methanol, and the pH was adjusted to 5.5 with a 1 M NaOH aqueous solution, and the final solution volume was fixed to 1 mL (the insufficient portion was replenished with secondary water) to form a test sample. Thereafter, the test sample was then filtered with a 0.22 μm pore size filter to remove undissolved precipitate. Finally, the content of loteprednol etabonate (LE) in the test sample was analyzed by high performance liquid chromatography (HPLC).

[3] = Solubility test for LE, Example 1-2: histidine as stabilizer; format: physicochemical; conditions: secondary water, aqueous with cosolvent or surfactant or cyclodextrin; final volume 1 mL, pH 5.5, room temperature, 0.22 μm filtered, HPLC
From the text: The samples were formulated and analyzed according to the formulas shown in the following Table 3 and the methods described below at room temperature.
Hydroxypropyl-γ-cyclodextrin, a water-soluble polymer (hydroxypropyl methyl cellulose (HPMC) (molecular weight: 16676)), and histidine (His) as a stabilizer of the formulation were co-dissolved in secondary water to form a solution.
as §1, with “that, […],” for “that, the mixture was treated by a rotary evaporator to completely remove methanol,”, “a 0.1” for “a 1”, “M HCl” for “M NaOH”

[4] = Solubility test for loteprednol etabonate (LE), Example 1-1: different amino acids, oligopeptides or monosaccharide as stabilizer; format: physicochemical; conditions: aqueous with cosolvent or surfactant or cyclodextrin, thermodynamic from solid; LE feeding 4000 μg; re-dissolved in 2 mL deionized water, pH 5.5, room temperature, 0.22 μm filtered, HPLC
Method: The samples were formulated and analyzed according to the formulas shown in the following Table 1 and the methods described below at room temperature. […] After that, the mixture was dried in a vacuum environment to performing drying to remove the solvent therein and obtain a dried product. […] Next, the test sample was filtered with a 0.22 μm pore size filter to remove undissolved precipitate. Finally, the content of loteprednol etabonate (LE) in the test sample was analyzed by high performance liquid chromatography (HPLC).

solubility [2] [µg/mL] | solubility [3] [µg/mL] | solubility [4] [µg/mL] | SMILES | Water solubility [1] [mM]
– | – | – | N[C@@H](CCC(=O)N[C@@H](CS)C(=O)NCC(=O)O)C(=O)O [GSH, glutathione] | 950
– | – | – | OC[C@@H](O)[C@@H](O)[C@H](O)[C@H](O)CO [Mannitol, mannitol] | 1190
1.5 (≈ 3.21 µM) | 1.5 (≈ 3.21 µM) | 1.5 (≈ 3.21 µM) | CCOC(=O)O[C@]1(C(=O)OCCl)CC[C@H]2[C@@H]3CCC4=CC(=O)C=C[C@]4(C)[C@H]3[C@@H](O)C[C@@]21C [LE, loteprednol etabonate] | –
